In the supplement of paper PMC10307832:

What was measured:
Experiment in all cases: relative viability (nuclei count vs DMSO), 5 days (fraction); higher = more cells survive
201T = test system: 201T
Summary of the method: (§1)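 One day after seeding in 1536-well plates, lung cancer cell lines were dosed by pin tool. Dosing was either single-drug or a fixed anchor-drug dose plus five library-drug doses (not always all listed) in √10 steps. After 5 days, nuclei were stained in one fix-and-stain step and counted on 4× images, and relative viability is the nuclei count of treated wells over that of vehicle wells, given as the median of duplicate plates.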

BEN = test system: BEN
Summary of the method: as §1

CAL-12T = test system: CAL-12T
Summary of the method: as §1

HCC-827 = test system: HCC-827
Summary of the method: as §1

LCLC-103H = test system: LCLC-103H
Summary of the method: as §1

LCLC-97TM1 = test system: LCLC-97TM1
Summary of the method: as §1

LXF-289 = test system: LXF-289
Summary of the method: as §1

NCI-H1437 = test system: NCI-H1437
Summary of the method: as §1

NCI-H1650 = test system: NCI-H1650
Summary of the method: as §1

NCI-H1792 = test system: NCI-H1792
Summary of the method: as §1

NCI-H1944 = test system: NCI-H1944
Summary of the method: as §1

NCI-H2087 = test system: NCI-H2087
Summary of the method: as §1

NCI-H2228 = test system: NCI-H2228
Summary of the method: as §1

NCI-H2405 = test system: NCI-H2405
Summary of the method: as §1

NCI-H3122 = test system: NCI-H3122
Summary of the method: as §1

NCI-H322M = test system: NCI-H322M
Summary of the method: as §1

NCI-H647 = test system: NCI-H647
Summary of the method: as §1

NCI-H727 = test system: NCI-H727
Summary of the method: as §1

RERF-LC-KJ = test system: RERF-LC-KJ
Summary of the method: as §1

SK-LU-1 = test system: SK-LU-1
Summary of the method: as §1

Structure (SMILES): COc1nc(C)cnc1NS(=O)(=O)c1cccnc1-c1ccc(-c2nnco2)cc1 [Zibotentan] + C[C@@H](Oc1cc(-c2cnn(C3CCNCC3)c2)cnc1N)c1c(Cl)ccc(F)c1Cl [Crizotinib] (partner 1 µM)
- relative viability (201T; first compound 0.08 µM): 1.03
- relative viability (201T; first compound 0.253 µM): 0.992
- relative viability (201T; first compound 0.8 µM): 1.04
- relative viability (201T; first compound 2.53 µM): 1.07
- relative viability (BEN; first compound 0.08 µM): 0.803
- relative viability (BEN; first compound 0.253 µM): 0.724
- relative viability (BEN; first compound 0.8 µM): 0.989
- relative viability (BEN; first compound 2.53 µM): 1.02
- relative viability (CAL-12T; first compound 0.08 µM): 0.667
- relative viability (CAL-12T; first compound 0.253 µM): 0.553
- relative viability (CAL-12T; first compound 0.8 µM): 0.602
- relative viability (CAL-12T; first compound 2.53 µM): 0.712
- relative viability (HCC-827; first compound 0.08 µM): 0.944
- relative viability (HCC-827; first compound 0.253 µM): 0.955
- relative viability (HCC-827; first compound 0.8 µM): 0.946
- relative viability (HCC-827; first compound 2.53 µM): 0.987
- relative viability (LCLC-103H; first compound 0.08 µM): 0.932
- relative viability (LCLC-103H; first compound 0.253 µM): 0.965
- relative viability (LCLC-103H; first compound 0.8 µM): 0.97
- relative viability (LCLC-103H; first compound 2.53 µM): 1.05
- relative viability (LCLC-97TM1; first compound 0.08 µM): 0.272
- relative viability (LCLC-97TM1; first compound 0.253 µM): 0.374
- relative viability (LCLC-97TM1; first compound 0.8 µM): 0.351
- relative viability (LCLC-97TM1; first compound 2.53 µM): 0.435
- relative viability (LXF-289; first compound 0.08 µM): 0.882
- relative viability (LXF-289; first compound 0.253 µM): 0.804
- relative viability (LXF-289; first compound 0.8 µM): 0.822
- relative viability (LXF-289; first compound 2.53 µM): 0.805
- relative viability (NCI-H1437; first compound 0.08 µM): 0.924
- relative viability (NCI-H1437; first compound 0.253 µM): 0.853
- relative viability (NCI-H1437; first compound 0.8 µM): 0.977
- relative viability (NCI-H1437; first compound 2.53 µM): 0.989
- relative viability (NCI-H1650; first compound 0.08 µM): 1.05
- relative viability (NCI-H1650; first compound 0.8 µM): 1.01
- relative viability (NCI-H1650; first compound 2.53 µM): 0.925
- relative viability (NCI-H1792; first compound 0.08 µM): 1.19
- relative viability (NCI-H1792; first compound 0.253 µM): 0.949
- relative viability (NCI-H1792; first compound 0.8 µM): 0.884
- relative viability (NCI-H1792; first compound 2.53 µM): 0.99
- relative viability (NCI-H1944; first compound 0.08 µM): 1.26
- relative viability (NCI-H1944; first compound 0.253 µM): 1.08
- relative viability (NCI-H1944; first compound 0.8 µM): 1.06
- relative viability (NCI-H1944; first compound 2.53 µM): 1.06
- relative viability (NCI-H2087; first compound 0.08 µM): 0.881
- relative viability (NCI-H2087; first compound 0.253 µM): 1.07
- relative viability (NCI-H2087; first compound 0.8 µM): 0.984
- relative viability (NCI-H2087; first compound 2.53 µM): 0.928
- relative viability (NCI-H2228; first compound 0.08 µM): 0.548
- relative viability (NCI-H2228; first compound 0.253 µM): 0.369
- relative viability (NCI-H2228; first compound 0.8 µM): 0.451
- relative viability (NCI-H2228; first compound 2.53 µM): 0.441
- relative viability (NCI-H2405; first compound 0.08 µM): 0.907
- relative viability (NCI-H2405; first compound 0.253 µM): 0.882
- relative viability (NCI-H2405; first compound 0.8 µM): 0.789
- relative viability (NCI-H2405; first compound 2.53 µM): 0.881
- relative viability (NCI-H3122; first compound 0.08 µM): 0.259
- relative viability (NCI-H3122; first compound 0.253 µM): 0.234
- relative viability (NCI-H3122; first compound 0.8 µM): 0.269
- relative viability (NCI-H3122; first compound 2.53 µM): 0.282
- relative viability (NCI-H322M; first compound 0.08 µM): 0.932
- relative viability (NCI-H322M; first compound 0.253 µM): 0.901
- relative viability (NCI-H322M; first compound 0.8 µM): 0.496
- relative viability (NCI-H322M; first compound 2.53 µM): 0.934
- relative viability (NCI-H647; first compound 0.08 µM): 1.04
- relative viability (NCI-H647; first compound 0.253 µM): 1.06
- relative viability (NCI-H647; first compound 0.8 µM): 1.18
- relative viability (NCI-H647; first compound 2.53 µM): 1.23
- relative viability (NCI-H727; first compound 0.08 µM): 0.985
- relative viability (NCI-H727; first compound 0.253 µM): 0.825
- relative viability (NCI-H727; first compound 0.8 µM): 0.806
- relative viability (NCI-H727; first compound 2.53 µM): 0.844
- relative viability (RERF-LC-KJ; first compound 0.08 µM): 0.921
- relative viability (RERF-LC-KJ; first compound 0.253 µM): 0.802
- relative viability (RERF-LC-KJ; first compound 0.8 µM): 0.786
- relative viability (RERF-LC-KJ; first compound 2.53 µM): 0.855
- relative viability (SK-LU-1; first compound 0.08 µM): 0.879
- relative viability (SK-LU-1; first compound 0.253 µM): 0.841
- relative viability (SK-LU-1; first compound 0.8 µM): 0.928
- relative viability (SK-LU-1; first compound 2.53 µM): 1.05
